In patent publication US9540343B2 (Gilead Sciences, Inc., priority 2011, dated 2017):

How the values were obtained:
[1] = in vitro; details: human, uninfected MT-4 cells, CC50 (nM), same protocol as Test A, CellTiter-Glo
In short: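 Cytoprotection read-out: CellTiter-Glo chemiluminescence after 5 days at 37 °C of HIV-IIIb-infected MT-4 cells (m.o.i. 0.003) with compound in 10-point 3-fold dilutions, quadruplicate, 10% FBS. Cytotoxicity (CC50) measured identically without virus.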

[2] = system: HIV-IIIb; experiment: Test A: Antiviral assay in MT4 cells; format: cell-based, HIV-1; details: Human immunodeficiency virus 1, IIIB, MT4, 120 h, read-out: % inhibition at 2 μM, percent inhibition of virus-induced cell killing, from dose response curve at 2 uM drug; MT-4 cells infected with HIV-IIIb, 5 days, CellTiter-Glo

Compound | CC50 at 5 days [1] [nM] | inhibition at 2 µM [2] [%]
NC(=O)c1cc(-c2cccnc2[C@H](Cc2cc(F)cc(F)c2)NC(=O)Cn2nc(C(F)F)c3c2CCCC3)ccc1F [Example 307, (S)-5-(2-(1-(2-(3-(difluoromethyl)-4,5,6,7-tetrahydro-1H-indazol-1-yl)acetamido)-2-(3,5-difluorophenyl)ethyl)pyridin-3-yl)-2-fluorobenzamide] | 26700 | 99
NC(=O)c1cc(-c2cccnc2C(Cc2cc(F)cc(F)c2)NC(=O)Cn2nc(C(F)F)c3c2C2CC2CC3)ccc1F (stereo not drawn) [Example 392, 5-(2-(1-(2-(3-(difluoromethyl)-5,5a,6,6a-tetrahydrocyclopropa[g]indazol-1(4H)-yl)acetamido)-2-(3,5-difluorophenyl)ethyl)pyridin-3-yl)-2-fluorobenzamide] | 19100 | 105
NC(=O)c1cc(-c2cccnc2[C@H](Cc2cc(F)cc(F)c2)NC(=O)Cn2nc(C(F)(F)F)c3c2CC(F)(F)CC3)ccc1F [Example 387, (S)-5-(2-(1-(2-(6,6-difluoro-3-(trifluoromethyl)-4,5,6,7-tetrahydro-1H-indazol-1-yl)acetamido)-2-(3,5-difluorophenyl)ethyl)pyridin-3-yl)-2-fluorobenzamide] | 21200 | 61
O=C(Cn1nc(C(F)F)c2c1C(F)(F)C1CC21)N[C@@H](Cc1cc(F)cc(F)c1)c1ncccc1-c1cccc2ncccc12 (stereo partly drawn) [Example 420, (S)—N-(1-(3-(isoquinole-5-yl)-pyridin-2-yl)-2-(3,5-difluorophenyl)ethyl)-2-(3-(difluoromethyl)-5,6-dihydro-4,5-(methano)-6,6-difluoro-cyclopenta[c]pyrazol-1(4H)-yl)acetamide] | 18700 | 110
O=C(Cn1nc(C(F)F)cc1C(F)F)N[C@@H](Cc1cc(F)cc(F)c1)c1ncccc1-c1cnc2[nH]ccc2c1 [Example 512C, (S)—N-(1-(3-(1H-pyrrolo[2,3-b]pyridin-5-yl)pyridin-2-yl)-2-(3,5-difluorophenyl)ethyl)-2-(3,5-bis(difluoromethyl)-1H-pyrazol-1-yl)acetamide] | 19900 | 60
CCc1c(-c2ccccc2)c(C(F)(F)F)nn1CC(=O)N[C@@H](Cc1cc(F)cc(F)c1)c1ncccc1-c1ccc(F)c(C(N)=O)c1 [Example 290, (S)-5-(2-(2-(3,5-difluorophenyl)-1-(2-(5-ethyl-4-phenyl-3-(trifluoromethyl)-1H-pyrazol-1-yl)acetamido)ethyl)pyridin-3-yl)-2-fluorobenzamide] | 11500 | 4
NC(=O)c1cc(-c2cccnc2C(Cc2cc(F)cc(F)c2)NC(=O)Cn2nc(C(F)F)c3c2C(F)(F)CCC3F)ccc1F (stereo not drawn) [Example 390, 5-(2-(1-(2-(3-(difluoromethyl)-4,7,7-trifluoro-4,5,6,7-tetrahydro-1H-indazol-1-yl)acetamido)-2-(3,5-difluorophenyl)ethyl)pyridin-3-yl)-2-fluorobenzamide] | 21600 | 99
NC(=O)c1cc(-c2cccnc2[C@H](Cc2cc(F)cc(F)c2)NC(=O)Cn2nc3c(c2C(F)F)C2CC2C3O)ccc1F (stereo partly drawn) [Example 243, 5-(2-((1S)-1-(2-(3-(difluoromethyl)-5-hydroxy-3b,4,4a,5-tetrahydro-2H-cyclopropa[3,4]cyclopenta[1,2-c]pyrazol-2-yl)acetamido)-2-(3,5-difluorophenyl)ethyl)pyridin-3-yl)-2-fluorobenzamide] | > 53200 | 33
NC(=O)c1cc(-c2cccnc2[C@H](Cc2cc(F)cc(F)c2)NC(=O)Cc2ccccc2)ccc1F [Example 592] | > 53200 | 8
Cc1ccccc1-c1cccnc1[C@H](Cc1ccccc1)NC(=O)Cn1nc(C(F)(F)F)c2c1CCCC2 [Example 17, (S)—N-(2-phenyl-1-(3-o-tolylpyridin-2-yl)ethyl)-2-(3-(trifluoromethyl)-4,5,6,7-tetrahydro-1H-indazol-1-yl)acetamide] | 13800 | 70
O=C(Cn1nc(C(F)F)c2c1C(F)(F)C1CC21)N[C@@H](Cc1cc(F)cc(F)c1)c1ncccc1-c1ccc2cnccc2c1 (stereo partly drawn) [Example 436] | 11300 | 20
Cc1nn(CC(=O)N[C@@H](Cc2cc(F)cc(F)c2)c2ncccc2-c2cccc(C(N)=O)c2)c(C)c1C [Example 506, (S)-3-(2-(2-(3,5-difluorophenyl)-1-(2-(3,4,5-trimethyl-1H-pyrazol-1-yl)acetamido)ethyl)pyridin-3-yl)benzamide] | > 53000 | 32
CN1CCc2c(c(C(F)(F)F)nn2CC(=O)N[C@@H](Cc2cc(F)cc(F)c2)c2ncccc2-c2ccc(F)c(C(N)=O)c2)C1 [Example 324, (S)-5-(2-(2-(3,5-difluorophenyl)-1-(2-(5-methyl-3-(trifluoromethyl)-4,5,6,7-tetrahydro-1H-pyrazolo[4,3-c]pyridin-1-yl)acetamido)ethyl)pyridin-3-yl)-2-fluorobenzamide] | > 53200 | 31
O=C(Cn1nc(C(F)F)c2c1C(F)(F)C1CC21)N[C@@H](Cc1cc(F)cc(F)c1)c1ncccc1-c1ccc(S(=O)(=O)N2CCCCC2)cc1 (stereo partly drawn) [Example 71, (S)—N-(1-(3-(4-((piperidin-1-yl)sulfonyl)phenyl)-pyridin-2-yl)-2-(3,5-difluorophenyl)ethyl)-2-(3-(difluoromethyl)-5,6-dihydro-4,5-(methano)-6,6-difluoro-cyclopenta[c]pyrazol-1(4H)-yl)acetamide] | > 53200 | 64
NC(=O)c1cc(-c2cccnc2[C@H](Cc2cc(F)cc(F)c2)NC(=O)COc2cc[nH]c(=O)c2)ccc1F [Example 282, (S)-5-(2-(2-(3,5-difluorophenyl)-1-(2-(2-oxo-1,2-dihydropyridin-4-yloxy)acetamido)ethyl)pyridin-3-yl)-2-fluorobenzamide] | > 53200 | 0
NC(=O)c1cc(-c2cccnc2[C@H](Cc2cc(F)cc(F)c2)NC(=O)Cn2c(=O)[nH]c3cc(Cl)c(Cl)cc32)ccc1F [Example 309, (S)-5-(2-(1-(2-(5,6-dichloro-2-oxo-2,3-dihydro-1H-benzo[d]imidazol-1-yl)acetamido)-2-(3,5-difluorophenyl)ethyl)pyridin-3-yl)-2-fluorobenzamide] | 12000 | 9
NC(=O)c1cc(-c2cccnc2[C@H](Cc2cc(F)cc(F)c2)NC(=O)Cn2nc(C(F)(F)F)c3c2CS(=O)(=O)C3)ccc1F [Example 194, (S)-5-(2-(2-(3,5-difluorophenyl)-1-(2-(5,5-dioxido-3-(trifluoromethyl)-4,6-dihydro-1H-thieno[3,4-c]pyrazol-1-yl)acetamido)ethyl)pyridin-3-yl)-2-fluorobenzamide] | > 53200 | 11
NC(=O)c1cc(-c2cccnc2[C@H](Cc2cc(F)cc(F)c2)NC(=O)Cn2nc(C(F)F)c3c2C(F)(F)CCC3O)ccc1F (stereo partly drawn) [Example 334, 5-(2-((1S)-1-(2-(3-(difluoromethyl)-7,7-difluoro-4-hydroxy-4,5,6,7-tetrahydro-1H-indazol-1-yl)acetamido)-2-(3,5-difluorophenyl)ethyl)pyridin-3-yl)-2-fluorobenzamide] | 26500 | 63
NC(=O)c1cc(-c2cccnc2[C@H](Cc2cc(F)cc(F)c2)NC(=O)Cn2cc(CN3CCOCC3)c(C(F)(F)F)n2)ccc1F [Example 305, (S)-5-(2-(2-(3,5-difluorophenyl)-1-(2-(4-(morpholinomethyl)-3-(trifluoromethyl)-1H-pyrazol-1-yl)acetamido)ethyl)pyridin-3-yl)-2-fluorobenzamide] | > 53200 | 0
NC(=O)c1cccc(-c2cncnc2[C@H](Cc2cc(F)cc(F)c2)NC(=O)Cc2c[nH]c3ccc(O)cc23)c1 [Example 327, (S)-3-(4-(2-(3,5-difluorophenyl)-1-(2-(5-hydroxy-1H-indol-3-yl)acetamido)ethyl)pyrimidin-5-yl)benzamide] | > 53200 | 94
CCOC(=O)c1cn(CC(=O)N[C@@H](Cc2cc(F)cc(F)c2)c2ncccc2-c2ccc(F)c(C(N)=O)c2)nc1C(F)(F)F [Example 289, (S)-ethyl 1-(2-(1-(3-(3-carbamoyl-4-fluorophenyl)pyridin-2-yl)-2-(3,5-difluorophenyl)ethylamino)-2-oxoethyl)-3-(trifluoromethyl)-1H-pyrazole-4-carboxylate] | 26400 | 2
NC(=O)c1cc(-c2cccnc2[C@H](Cc2cc(F)cc(F)c2)NC(=O)Cn2nc(Br)nc2C2CC2)ccc1F [Example 366, (S)-5-(2-(1-(2-(3-bromo-5-cyclopropyl-1H-1,2,4-triazol-1-yl)acetamido)-2-(3,5-difluorophenyl)ethyl)pyridin-3-yl)-2-fluorobenzamide] | > 53200 | 6
NC(=O)c1cccc(-c2cccnc2[C@H](Cc2cc(F)cc(F)c2)NC(=O)Cn2ncc3ccccc32)c1 [Example 108, (S)-3-(2-(1-(2-(1H-indazol-1-yl)acetamido)-2-(3,5-difluorophenyl)ethyl)pyridin-3-yl)benzamide] | > 53000 | 13
NC(=O)c1cc(-c2cccnc2[C@H](Cc2cc(F)cc(F)c2)NC(=O)Cn2nc(C(F)F)c3c2C2CC(C2)C3=O)ccc1F [Example 397, (S)-5-(2-(2-(3,5-difluorophenyl)-1-(2-(4,5,6,7-tetrahydro-3-difluoromethyl-4-oxo-5,7-(methano)indazol-1-yl)acetamido)ethyl)pyridin-3-yl)-2-fluorobenzamide] | > 53200 | 26
